Entries after “also recorded” stand apart in the source; their conditions may differ. Where a SMILES comes first, the peptide text is derived from it.
Each compound was assayed on human tumor cells (assay: Cytotoxic activity screening of peptide library on human tumor cell lines, SRB method). Conditions: SRB method; cytotoxic = dose-dependent 50% inhibition of proliferation, GI50 below 100 μM in at least one cell line.
Type: cell-based
Description: Negative control cells were cultured on a volume of vehicle equal to that of the experimental samples. An “x-y” curve (dose-response) was established with the percent of surviving cells, compared in respect to the negative control cells, and the following parameters were estimated: 50% growth inhibition (GI50); Total growth inhibition (TGI); and the lethal concentration 50 (LC50), that is the concentration causing the 50% of cell death (Boyd M R, Paull K D, and Rubinstein L R (1992) “Data display and analysis strategies for the NCI Disease Oriented In-Vitro Antitumor Drug Screen, in Cytotoxic Anticancer Drugs: Models and Concept for Drug Discovery and Development” (Baleriote F A, Corbett T H and Baker L H eds) pp 11-34, Kluwer Academia Publishers, Boston).
Were considered as cytotoxic peptides all those peptides being able of inhibiting 50% of the cellular proliferation, in a dose-dependent manner, and showing GI50 values below 100 μM, at least in one of the cell lines studied. The human tumor cell lines used were: HEp-2 (larynx carcinoma), A549 (lung epithelial adenocarcinoma), M14 (melanoma), Colo 205 (colon adenocarcinoma), Ls174T (colon adenocarcinoma), LnCAP (prostate carcinoma), PC-3 (prostate carcinoma) and H 125 (non-small cell lung adenocarcinoma). Represented are primary sequences for the designed peptides, the code used for its generation and their respective cytotoxic capacity on human tumor cells.

Row | Compound | Cytotoxic activity in vitro
1 | CC[C@H](C)[C@H](NC(=O)[C@H](C)NC(=O)[C@H](C)NC(=O)[C@@H](NC(=O)[C@H](CC(=O)O)NC(=O)[C@H](CC(=O)O)NC(=O)[C@H](CC(C)C)NC(=O)[C@@H](N)CC(C)C)[C@@H](C)CC)C(=O)N[C@@H](CCC(N)=O)C(=O)N[C@@H](Cc1c[nH]cn1)C(=O)N[C@@H](CC(C)C)C(=O)N[C@@H](Cc1ccc(O)cc1)C(=O)NCC(=O)N[C@@H](C)C(=O)N[C@@H](CC(N)=O)C(=O)N1CCC[C@H]1C(=O)N[C@@H](CO)C(=O)N[C@H](C(=O)N[C@@H](CCCNC(=N)N)C(=O)N[C@H](C(N)=O)[C@@H](C)O)[C@@H](C)O [Peptide E07P05] (H-LLDDIAAIQHLYGANPSTRT-NH2) | − (symbol − indicates its absence, following criteria established in Example 2)
2 | CC(C)C[C@H](N)C(=O)N[C@@H](Cc1ccc(O)cc1)C(=O)NCC(=O)N[C@@H](C)C(=O)N[C@@H](CC(N)=O)C(=O)N1CCC[C@H]1C(=O)N[C@@H](CO)C(=O)N[C@H](C(=O)N[C@@H](CCCNC(=N)N)C(=O)N[C@H](C(=O)NCC(=O)N[C@@H](CC(=O)O)C(=O)N[C@H](C(=O)N[C@H](C(=O)N[C@@H](Cc1ccc(O)cc1)C(=O)NCC(=O)N[C@@H](Cc1ccccc1)C(=O)N[C@@H](CC(N)=O)C(=O)N[C@@H](CO)C(=O)N[C@@H](CC(N)=O)C(N)=O)C(C)C)[C@@H](C)O)[C@@H](C)O)[C@@H](C)O [Peptide E07P06] (H-LYGANPSTRTGDTVYGFNSN-NH2) | − (symbol − indicates its absence, following criteria established in Example 2)
3 | CC[C@H](C)[C@H](NC(=O)[C@@H](NC(=O)[C@H](CCCCN)NC(=O)[C@H](CCC(N)=O)NC(=O)[C@H](CO)NC(=O)[C@H](CC(N)=O)NC(=O)[C@H](CO)NC(=O)[C@@H](NC(=O)[C@@H](NC(=O)[C@H](CO)NC(=O)[C@H](CC(C)C)NC(=O)[C@H](Cc1ccccc1)NC(=O)[C@H](CC(=O)O)NC(=O)[C@H](CCCNC(=N)N)NC(=O)CNC(=O)[C@@H](N)[C@@H](C)O)[C@@H](C)O)[C@@H](C)O)C(C)C)C(=O)N[C@@H](Cc1ccccc1)C(=O)N[C@@H](C)C(=O)N[C@@H](C)C(=O)N[C@@H](Cc1c[nH]c2ccccc12)C(N)=O [Peptide F07P16] (H-TGRDFLSTTSNSQKVIFAAW-NH2) | − (symbol − indicates its absence, following criteria established in Example 2)
4 | CC[C@H](C)[C@H](NC(=O)[C@H](CCCNC(=N)N)NC(=O)[C@H](CCC(N)=O)NC(=O)[C@H](CC(N)=O)NC(=O)[C@H](C)NC(=O)[C@@H](NC(=O)[C@H](Cc1ccc(O)cc1)NC(=O)CNC(=O)[C@H](CO)NC(=O)[C@H](Cc1ccccc1)NC(=O)[C@H](CC(=O)O)NC(=O)[C@H](Cc1ccccc1)NC(=O)[C@@H](NC(=O)[C@H](CC(=O)O)NC(=O)[C@H](CC(N)=O)NC(=O)CNC(=O)CNC(=O)[C@H](C)NC(=O)[C@@H](N)CC(=O)O)[C@@H](C)O)[C@@H](C)O)C(=O)N[C@@H](CC(N)=O)C(N)=O [Peptide M07P39] (H-DAGGNDTFDFSGYTANQRIN-NH2) | − (symbol − indicates its absence, following criteria established in Example 2)
5 | CC[C@H](C)[C@H](NC(=O)[C@H](CC(=O)O)NC(=O)[C@H](CCCCN)NC(=O)CNC(=O)[C@H](C)NC(=O)CNC(=O)CNC(=O)[C@H](Cc1c[nH]c2ccccc12)NC(=O)[C@H](CC(C)C)NC(=O)[C@H](CCC(=O)O)NC(=O)[C@@H](N)CC(=O)O)C(=O)N[C@@H](Cc1ccccc1)C(=O)N[C@H](C(=O)N[C@@H](Cc1ccccc1)C(=O)N[C@@H](CO)C(=O)N[C@@H](C)C(=O)N[C@@H](C)C(=O)N[C@@H](CO)C(=O)N[C@@H](CC(=O)O)C(=O)N[C@@H](CO)C(N)=O)C(C)C [Peptide O07P102] (H-DELWGGAGKDIFVFSAASDS-NH2) | − (symbol − indicates its absence, following criteria established in Example 2)
6 | CC[C@H](C)[C@H](N)C(=O)N[C@@H](Cc1ccccc1)C(=O)N[C@H](C(=O)N[C@@H](Cc1ccccc1)C(=O)N[C@@H](CO)C(=O)N[C@@H](C)C(=O)N[C@@H](C)C(=O)N[C@@H](CO)C(=O)N[C@@H](CC(=O)O)C(=O)N[C@@H](CO)C(=O)N[C@@H](C)C(=O)N1CCC[C@H]1C(=O)NCC(=O)N[C@@H](C)C(=O)N[C@@H](CO)C(=O)N[C@@H](CC(=O)O)C(=O)N[C@@H](Cc1c[nH]c2ccccc12)C(=O)N[C@H](C(=O)N[C@@H](CCCNC(=N)N)C(=O)N[C@@H](CC(=O)O)C(N)=O)[C@@H](C)CC)C(C)C [Peptide O07P103] (H-IFVFSAASDSAPGASDWIRD-NH2) | − (symbol − indicates its absence, following criteria established in Example 2)
7 | CC[C@H](C)[C@H](NC(=O)CNC(=O)[C@H](CCCCN)NC(=O)[C@H](CCC(N)=O)NC(=O)[C@H](Cc1ccccc1)NC(=O)[C@H](CC(=O)O)NC(=O)[C@H](CCCNC(=N)N)NC(=O)[C@@H](NC(=O)[C@H](Cc1c[nH]c2ccccc12)NC(=O)[C@H](CC(=O)O)NC(=O)[C@H](CO)NC(=O)[C@H](C)NC(=O)CNC(=O)[C@@H]1CCCN1C(=O)[C@H](C)N)[C@@H](C)CC)C(=O)N[C@@H](CC(=O)O)C(=O)N[C@@H](CCCCN)C(=O)N[C@H](C(=O)N[C@@H](CC(=O)O)C(=O)N[C@@H](CC(C)C)C(N)=O)[C@@H](C)CC [Peptide O07P104] (H-APGASDWIRDFQKGIDKIDL-NH2) | − (symbol − indicates its absence, following criteria established in Example 2)
8 | CC[C@H](C)[C@H](NC(=O)CNC(=O)[C@H](CCCCN)NC(=O)[C@H](CCC(N)=O)NC(=O)[C@@H](N)Cc1ccccc1)C(=O)N[C@@H](CC(=O)O)C(=O)N[C@@H](CCCCN)C(=O)N[C@H](C(=O)N[C@@H](CC(=O)O)C(=O)N[C@@H](CC(C)C)C(=O)N[C@@H](CO)C(=O)N[C@@H](Cc1ccccc1)C(=O)N[C@@H](Cc1ccccc1)C(=O)N[C@@H](CC(N)=O)C(=O)N[C@@H](CCCCN)C(=O)N[C@@H](CCC(=O)O)C(=O)N[C@@H](C)C(=O)N[C@@H](CC(N)=O)C(=O)N[C@@H](CO)C(=O)N[C@@H](CO)C(N)=O)[C@@H](C)CC [Peptide O07P105] (H-FQKGIDKIDLSFFNKEANSS-NH2) | − (symbol − indicates its absence, following criteria established in Example 2)
9 | CC[C@H](C)[C@H](NC(=O)[C@H](Cc1ccccc1)NC(=O)[C@H](CC(=O)O)NC(=O)[C@H](CO)NC(=O)[C@H](CO)NC(=O)[C@H](CC(N)=O)NC(=O)[C@H](C)NC(=O)[C@H](CCC(=O)O)NC(=O)[C@H](CCCCN)NC(=O)[C@H](CC(N)=O)NC(=O)[C@H](Cc1ccccc1)NC(=O)[C@H](Cc1ccccc1)NC(=O)[C@@H](N)CO)C(=O)N[C@@H](Cc1c[nH]cn1)C(=O)N[C@@H](Cc1ccccc1)C(=O)N[C@H](C(=O)N[C@@H](CC(=O)O)C(=O)N[C@@H](Cc1c[nH]cn1)C(=O)N[C@@H](Cc1ccccc1)C(=O)N[C@@H](CO)C(N)=O)C(C)C [Peptide O07P106] (H-SFFNKEANSSDFIHFVDHFS-NH2) | − (symbol − indicates its absence, following criteria established in Example 2)
10 | CC[C@H](C)[C@H](NC(=O)[C@H](Cc1ccccc1)NC(=O)[C@@H](N)CC(=O)O)C(=O)N[C@@H](Cc1c[nH]cn1)C(=O)N[C@@H](Cc1ccccc1)C(=O)N[C@H](C(=O)N[C@@H](CC(=O)O)C(=O)N[C@@H](Cc1c[nH]cn1)C(=O)N[C@@H](Cc1ccccc1)C(=O)N[C@@H](CO)C(=O)NCC(=O)N[C@H](C(=O)N[C@@H](C)C(=O)NCC(=O)N[C@@H](CCC(=O)O)C(=O)N[C@@H](C)C(=O)N[C@@H](CC(C)C)C(=O)N[C@@H](CC(C)C)C(=O)N[C@@H](CO)C(=O)N[C@@H](Cc1ccc(O)cc1)C(N)=O)[C@@H](C)O)C(C)C [Peptide O07P107] (H-DFIHFVDHFSGTAGEALLSY-NH2) | − (symbol − indicates its absence, following criteria established in Example 2)
11 | CC(C)C[C@H](NC(=O)[C@H](C)NC(=O)[C@H](CCC(=O)O)NC(=O)CNC(=O)[C@H](C)NC(=O)[C@@H](NC(=O)CN)[C@@H](C)O)C(=O)N[C@@H](CC(C)C)C(=O)N[C@@H](CO)C(=O)N[C@@H](Cc1ccc(O)cc1)C(=O)N[C@@H](CC(N)=O)C(=O)N[C@@H](C)C(=O)N[C@@H](CO)C(=O)N[C@@H](CO)C(=O)N[C@@H](CC(N)=O)C(=O)N[C@H](C(=O)N[C@H](C(=O)N[C@@H](CC(=O)O)C(=O)N[C@@H](CC(C)C)C(=O)N[C@@H](CO)C(N)=O)[C@@H](C)O)C(C)C [Peptide O07P108] (H-GTAGEALLSYNASSNVTDLS-NH2) | − (symbol − indicates its absence, following criteria established in Example 2)
12 | CC[C@H](C)[C@H](NC(=O)[C@H](Cc1ccccc1)NC(=O)[C@H](CC(=O)O)NC(=O)[C@@H](NC(=O)[C@H](C)NC(=O)[C@@H](NC(=O)[C@@H](N)CC(=O)O)C(C)C)[C@@H](C)O)C(=O)N[C@H](C(N)=O)C(C)C [Peptide U07P78, DVATDFIV- amide] (H-DVATDFIV-NH2) | − (symbol − indicates its absence, following criteria established in Example 2)
13 | CC[C@H](C)[C@H](NC(=O)[C@@H](NC(=O)[C@H](CC(=O)O)NC(=O)[C@H](CC(N)=O)NC(=O)CNC(=O)[C@@H](N)CO)C(C)C)C(=O)N[C@H](C(=O)NCC(=O)N[C@@H](CC(N)=O)C(=O)N[C@@H](C)C(=O)N[C@@H](C)C(=O)N[C@@H](CC(N)=O)C(=O)N[C@@H](CC(N)=O)C(=O)N[C@H](C(=O)N[C@@H](CC(C)C)C(=O)N[C@@H](CCCCN)C(=O)NCC(=O)NCC(=O)N[C@@H](C)C(=O)NCC(N)=O)C(C)C)C(C)C [Peptide Y07P48] (H-SGNDVIVGNAANNVLKGGAG-NH2) | − (symbol − indicates its absence, following criteria established in Example 2)

Same assay, conditions: peptide library screening

Row | Compound | cytotoxic / biological activity in vitro on tumor cells
14 | CC(C)C[C@H](N)C(=O)N[C@@H](Cc1ccc(O)cc1)C(=O)NCC(=O)N[C@@H](C)C(=O)N[C@@H](CC(N)=O)C(=O)N1CCC[C@H]1C(=O)N[C@@H](CO)C(=O)N[C@H](C(=O)N[C@@H](CCCNC(=N)N)C(=O)N[C@H](C(=O)NCC(=O)N[C@@H](CC(=O)O)C(=O)N[C@H](C(=O)N[C@H](C(=O)N[C@@H](Cc1ccc(O)cc1)C(=O)NCC(=O)N[C@@H](Cc1ccccc1)C(=O)N[C@@H](CC(N)=O)C(=O)N[C@@H](CO)C(=O)N[C@@H](CC(N)=O)C(N)=O)C(C)C)[C@@H](C)O)[C@@H](C)O)[C@@H](C)O [Peptide E07P06] (H-LYGANPSTRTGDTVYGFNSN-NH2) | no cytotoxic activity
15 | CC[C@H](C)[C@H](NC(=O)[C@@H](NC(=O)[C@H](CCCCN)NC(=O)[C@H](CCC(N)=O)NC(=O)[C@H](CO)NC(=O)[C@H](CC(N)=O)NC(=O)[C@H](CO)NC(=O)[C@@H](NC(=O)[C@@H](NC(=O)[C@H](CO)NC(=O)[C@H](CC(C)C)NC(=O)[C@H](Cc1ccccc1)NC(=O)[C@H](CC(=O)O)NC(=O)[C@H](CCCNC(=N)N)NC(=O)CNC(=O)[C@@H](N)[C@@H](C)O)[C@@H](C)O)[C@@H](C)O)C(C)C)C(=O)N[C@@H](Cc1ccccc1)C(=O)N[C@@H](C)C(=O)N[C@@H](C)C(=O)N[C@@H](Cc1c[nH]c2ccccc12)C(N)=O [Peptide F07P16] (H-TGRDFLSTTSNSQKVIFAAW-NH2) | no cytotoxic activity; also recorded: inactive
